{"source": "patent US11229633B2", "about": "“Arimoclomol formulation” (Orphazyme A/S, priority 2014, dated 2022)", "key": {"human OCT2": {"target": "T1, human OCT2 (Homo sapiens, UniProt O15244)", "T1 construct": "expressed in transfected cells; host or cells: CHO (protocol UPT-CHO-OCT2-Metf; control: parental CHO-K1)", "T1 sequence (O15244 1-555)": "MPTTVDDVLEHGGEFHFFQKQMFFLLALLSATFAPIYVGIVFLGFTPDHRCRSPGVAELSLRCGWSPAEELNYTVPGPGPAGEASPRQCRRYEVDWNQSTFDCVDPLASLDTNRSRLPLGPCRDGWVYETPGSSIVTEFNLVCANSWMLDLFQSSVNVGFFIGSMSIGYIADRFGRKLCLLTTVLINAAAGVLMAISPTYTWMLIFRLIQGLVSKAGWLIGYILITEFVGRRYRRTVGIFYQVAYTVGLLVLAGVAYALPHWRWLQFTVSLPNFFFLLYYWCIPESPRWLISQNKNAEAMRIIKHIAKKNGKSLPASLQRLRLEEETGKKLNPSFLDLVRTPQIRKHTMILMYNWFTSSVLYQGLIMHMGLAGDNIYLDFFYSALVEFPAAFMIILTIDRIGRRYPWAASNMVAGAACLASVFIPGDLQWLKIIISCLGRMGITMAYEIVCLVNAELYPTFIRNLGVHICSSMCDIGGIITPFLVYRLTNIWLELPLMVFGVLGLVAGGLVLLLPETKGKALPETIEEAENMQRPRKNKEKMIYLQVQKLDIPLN", "assay": "Uptake transporter substrate feasibility assay, OCT2", "type": "in vitro ADME", "design": "key to Substrate: NIO: No interaction observed", "procedure": "Uptake experiments were performed using CHO, MDCKII, or HEK293 cells stably expressing the respective uptake transporters.\nCells were cultured at 37±1° C. in an atmosphere of 95:5 air:CO2 as described in Table 4 and were plated onto standard 24-well tissue culture plates at 2×10^5 cells/well. The uptake of the TA was determined using cells overexpressing the respective uptake transporter and control cells, at two incubation time points (2 and 20 min) and at two concentrations (1 and 10 μM) of TA to determine whether or not the TA was actively taken up into the cells.\nBefore the experiment, the medium was removed and the cells were washed twice with 300 μl of HK buffer (pH 7.4) (prepared from Sigma chemicals). Cellular uptake of TA into the cells was measured by adding 300 μl of HK buffer containing TA and incubating them at 37±1° C. Reactions were quenched by removing the HK buffer containing the TA and the cells were washed twice with 300 μl of HK buffer. Cells were lysed by adding 300 μl of MeOH:H2O (2:1) and incubated for 20 minutes at 4±1° C. The amount of TA in the cell lysate was determined by LC-MS/MS. The amount of protein in each well was quantified using the BCA kit for protein determination (Sigma-Aldrich, St Louis, Mo., USA). Uptake of the probe substrate in control cells provided background activity values for all data points. Incubation without reference inhibitor (solvent only) provided 100% activity values. A reference inhibitor served as positive control for inhibition.\nThe fold accumulation value was defined as the ratio of uptake of TA or probe substrate into transfected and control cells:\n[formula] UPTTRP: accumulated amount of TA or probe substrate in transfected cells normalized by protein content [pmol/mg protein] UPTCTL: accumulated amount of TA or probe substrate in control cells normalized by protein content [pmol/mg protein]\nIf the fold accumulation is >2 and can be inhibited by a known inhibitor of the transporter, the TA can be considered to be a substrate of the respective transporter."}, "[1]": {"assay": "Kinetic solubility assessment in the assay buffers", "type": "physicochemical", "settings": "aqueous buffer, kinetic from dmso stock, 37° C.", "quoted_text": "The aqueous solubility of the TA was determined by spectrophotometric measurements in combination with optical microscopy evaluation (5 and 10× magnification). […] The timeframe of the solubility assessment covered the incubation time of the corresponding in vitro experiment.\nA stock solution and dilution series (5-step, 2-fold dilution series) of TA were prepared in water. Stock solutions were mixed with the appropriate assay buffers in a 96-wells plate and incubated for 10 minutes at 37° C. before the solutions were evaluated at 500 nm. […] Therefore, to be considered soluble at a given concentration, the background corrected absorbance of the TA solution must be less than 0.030 absorbance units (ΔA=Asolution−Ablank <0.030). The background corrected absorbance value for each solution was determined."}}, "data": [{"smiles": "[O-][n+]1cccc(C(Cl)=NOCC(O)CN2CCCCC2)c1", "note": "(centres unmarked) [Arimoclomol, N-[2-hydroxy-3-(1-piperidinyl)-propoxy]-pyridine-1-oxide-3-carboximidoyl chloride]", "values": [{"measurement": "Substrate of the transporter (in words)", "setting": "human OCT2", "value": "not a substrate"}, {"measurement": "Fold accumulation", "setting": "human OCT2; 1 μM, 2 min", "value": 0.95}, {"measurement": "Fold accumulation", "setting": "human OCT2; 1 μM, 20 min", "value": 1.28}, {"measurement": "Fold accumulation", "setting": "human OCT2; 10 μM, 2 min", "value": 0.87}, {"measurement": "Fold accumulation", "setting": "human OCT2; 10 μM, 20 min", "value": 1.05}, {"measurement": "Fold accumulation", "setting": "human OCT2; 1 and 10 μM, 2 and 20 min", "value": "< 2"}, {"measurement": "Substrate", "setting": "human OCT2; Table 2", "value": "NIO"}, {"measurement": "solubility at 10 min", "setting": "[1]", "value": "≥ 300", "unit": "µM"}]}]}
